Numbers after ± are expanded uncertainties.
Assay: cn = amount concentration of the nth substance listed, in mol/dm3
Details: 101 kPa, Liquid

## CNCC(=O)[O-].[K+] [potassium Salt of sarcosine] + O
298.15 K, c1 = 0.51
  mass density: 1024 ± 2 kg/m3
  viscosity: 1.018 ± 0.032 mPa·s
298.15 K, c1 = 1.01
  mass density: 1051 ± 2 kg/m3
298.15 K, c1 = 1.019
  viscosity: 1.185 ± 0.037 mPa·s
298.15 K, c1 = 1.534
  mass density: 1077 ± 3 kg/m3
  viscosity: 1.408 ± 0.043 mPa·s
298.15 K, c1 = 2.019
  mass density: 1103 ± 3 kg/m3
  viscosity: 1.663 ± 0.05 mPa·s
298.15 K, c1 = 2.445
  mass density: 1124 ± 3 kg/m3
  viscosity: 1.959 ± 0.059 mPa·s
298.15 K, c1 = 2.987
  mass density: 1150 ± 4 kg/m3
  viscosity: 2.493 ± 0.074 mPa·s
303.15 K, c1 = 0.51
  mass density: 1023 ± 2 kg/m3
  viscosity: 0.913 ± 0.03 mPa·s
303.15 K, c1 = 1.01
  mass density: 1049 ± 2 kg/m3
303.15 K, c1 = 1.019
  viscosity: 1.06 ± 0.034 mPa·s
303.15 K, c1 = 1.534
  mass density: 1074 ± 3 kg/m3
  viscosity: 1.252 ± 0.039 mPa·s
303.15 K, c1 = 2.019
  mass density: 1100 ± 3 kg/m3
  viscosity: 1.466 ± 0.045 mPa·s
303.15 K, c1 = 2.445
  mass density: 1121 ± 3 kg/m3
  viscosity: 1.707 ± 0.052 mPa·s
303.15 K, c1 = 2.987
  mass density: 1148 ± 4 kg/m3
  viscosity: 2.185 ± 0.065 mPa·s
313.15 K, c1 = 0.51
  mass density: 1019 ± 2 kg/m3
  viscosity: 0.748 ± 0.025 mPa·s
313.15 K, c1 = 1.01
  mass density: 1045 ± 2 kg/m3
313.15 K, c1 = 1.019
  viscosity: 0.876 ± 0.028 mPa·s
313.15 K, c1 = 1.534
  mass density: 1070 ± 3 kg/m3
  viscosity: 1.005 ± 0.032 mPa·s
313.15 K, c1 = 2.019
  mass density: 1096 ± 3 kg/m3
  viscosity: 1.18 ± 0.037 mPa·s
313.15 K, c1 = 2.445
  mass density: 1117 ± 3 kg/m3
  viscosity: 1.356 ± 0.042 mPa·s
313.15 K, c1 = 2.987
  mass density: 1143 ± 4 kg/m3
  viscosity: 1.721 ± 0.052 mPa·s
323.15 K, c1 = 0.51
  mass density: 1015 ± 2 kg/m3
  viscosity: 0.627 ± 0.022 mPa·s
323.15 K, c1 = 1.01
  mass density: 1041 ± 2 kg/m3
323.15 K, c1 = 1.019
  viscosity: 0.759 ± 0.025 mPa·s
323.15 K, c1 = 1.534
  mass density: 1065 ± 2 kg/m3
  viscosity: 0.833 ± 0.027 mPa·s
323.15 K, c1 = 2.019
  mass density: 1091 ± 3 kg/m3
  viscosity: 0.968 ± 0.031 mPa·s
323.15 K, c1 = 2.445
  mass density: 1111 ± 3 kg/m3
  viscosity: 1.098 ± 0.035 mPa·s
323.15 K, c1 = 2.987
  mass density: 1138 ± 4 kg/m3
  viscosity: 1.395 ± 0.043 mPa·s
333.15 K, c1 = 0.51
  mass density: 1010 ± 2 kg/m3
  viscosity: 0.538 ± 0.019 mPa·s
333.15 K, c1 = 1.01
  mass density: 1036 ± 2 kg/m3
333.15 K, c1 = 1.019
  viscosity: 0.614 ± 0.021 mPa·s
333.15 K, c1 = 1.534
  mass density: 1060 ± 2 kg/m3
  viscosity: 0.703 ± 0.024 mPa·s
333.15 K, c1 = 2.019
  mass density: 1085 ± 3 kg/m3
  viscosity: 0.811 ± 0.027 mPa·s
333.15 K, c1 = 2.445
  mass density: 1106 ± 3 kg/m3
  viscosity: 0.919 ± 0.03 mPa·s
333.15 K, c1 = 2.987
  mass density: 1132 ± 4 kg/m3
  viscosity: 1.115 ± 0.035 mPa·s

## CSCCC(N)C(=O)[O-].[K+] (stereo not drawn) [potassium salt of DL-methionine] + O
298.15 K, c1 = 0.252
  mass density: 1016 ± 2 kg/m3
  viscosity: 0.987 ± 0.032 mPa·s
298.15 K, c1 = 0.503
  mass density: 1033 ± 2 kg/m3
  viscosity: 1.109 ± 0.035 mPa·s
298.15 K, c1 = 0.732
  mass density: 1051 ± 2 kg/m3
  viscosity: 1.263 ± 0.039 mPa·s
298.15 K, c1 = 0.994
  mass density: 1067 ± 2 kg/m3
  viscosity: 1.425 ± 0.044 mPa·s
298.15 K, c1 = 1.252
  mass density: 1084 ± 3 kg/m3
  viscosity: 1.654 ± 0.05 mPa·s
298.15 K, c1 = 1.479
  mass density: 1100 ± 3 kg/m3
  viscosity: 1.883 ± 0.057 mPa·s
303.15 K, c1 = 0.252
  mass density: 1014 ± 2 kg/m3
  viscosity: 0.884 ± 0.029 mPa·s
303.15 K, c1 = 0.503
  mass density: 1032 ± 2 kg/m3
  viscosity: 0.987 ± 0.032 mPa·s
303.15 K, c1 = 0.732
  mass density: 1049 ± 2 kg/m3
  viscosity: 1.125 ± 0.035 mPa·s
303.15 K, c1 = 0.994
  mass density: 1065 ± 2 kg/m3
  viscosity: 1.264 ± 0.039 mPa·s
303.15 K, c1 = 1.252
  mass density: 1083 ± 3 kg/m3
  viscosity: 1.478 ± 0.045 mPa·s
303.15 K, c1 = 1.479
  mass density: 1098 ± 3 kg/m3
  viscosity: 1.657 ± 0.05 mPa·s
313.15 K, c1 = 0.252
  mass density: 1010 ± 2 kg/m3
  viscosity: 0.722 ± 0.024 mPa·s
313.15 K, c1 = 0.503
  mass density: 1027 ± 2 kg/m3
  viscosity: 0.806 ± 0.027 mPa·s
313.15 K, c1 = 0.732
  mass density: 1044 ± 2 kg/m3
  viscosity: 0.909 ± 0.029 mPa·s
313.15 K, c1 = 0.994
  mass density: 1060 ± 2 kg/m3
  viscosity: 1.019 ± 0.033 mPa·s
313.15 K, c1 = 1.252
  mass density: 1077 ± 3 kg/m3
  viscosity: 1.161 ± 0.036 mPa·s
313.15 K, c1 = 1.479
  mass density: 1093 ± 3 kg/m3
  viscosity: 1.316 ± 0.041 mPa·s
323.15 K, c1 = 0.252
  mass density: 1006 ± 1 kg/m3
  viscosity: 0.608 ± 0.021 mPa·s
323.15 K, c1 = 0.503
  mass density: 1023 ± 2 kg/m3
  viscosity: 0.675 ± 0.023 mPa·s
323.15 K, c1 = 0.732
  mass density: 1039 ± 2 kg/m3
  viscosity: 0.754 ± 0.025 mPa·s
323.15 K, c1 = 0.994
  mass density: 1055 ± 2 kg/m3
  viscosity: 0.84 ± 0.028 mPa·s
323.15 K, c1 = 1.252
  mass density: 1072 ± 3 kg/m3
  viscosity: 0.952 ± 0.031 mPa·s
323.15 K, c1 = 1.479
  mass density: 1087 ± 3 kg/m3
  viscosity: 1.071 ± 0.034 mPa·s
333.15 K, c1 = 0.252
  mass density: 1003 ± 1 kg/m3
  viscosity: 0.519 ± 0.019 mPa·s
333.15 K, c1 = 0.503
  mass density: 1020 ± 2 kg/m3
  viscosity: 0.575 ± 0.02 mPa·s
333.15 K, c1 = 0.732
  mass density: 1037 ± 2 kg/m3
  viscosity: 0.64 ± 0.022 mPa·s
333.15 K, c1 = 0.994
  mass density: 1053 ± 2 kg/m3
  viscosity: 0.708 ± 0.024 mPa·s
333.15 K, c1 = 1.252
  mass density: 1069 ± 3 kg/m3
  viscosity: 0.799 ± 0.026 mPa·s
333.15 K, c1 = 1.479
  mass density: 1085 ± 3 kg/m3
  viscosity: 0.893 ± 0.029 mPa·s

— the NIST ThermoML archive (doi:10.1021/je700699u)
